From patent EP0256258A2, “Salts of methoxyphenyl-dimethylaminomethyl-cyclohexanol, medicaments containing these and process for their preparation” (Grünenthal GmbH, priority 1986, dated 1988)
≈ marks a conversion by molar mass, not a printed value. Structures can show the parent of a compound that is named as a salt.

Key:
[1] = Dissolution rate of finely powdered substance under USP XXI conditions (apparatus 2) in artificial intestinal juice; conditions: pH 7
[2] = physchem; conditions: water
[3] = Solubility in water

For `COc1cccc([C@@]2(O)CCCC[C@@H]2CN(C)C)c1` (racemic) [I-Hydrochlorid, 1e-(m-Methoxyphenyl)-2e-dimethylaminomethyl-cyclohexan-1-(a)-ol], the “gelöst / in Lösung gegangen nach 2 Minuten” value [1] was > 97% and the solubility [2] was 298 mg/mL.

In the case of `O=C(O)Cc1ccccc1Nc1c(Cl)cccc1Cl` [II-Natriumsalz, 2-(2ʹ,6ʹ-Dichloranilino)-phenylessigsäure], the solubility [3] is reported as ~30 mg/mL (≈ 101 mM).
